# Measurements taken from patent US12662714B2, “Method for separation of adjacent lanthanide elements” (UT-Battelle, LLC, priority 2022, dated 2026).
# Experiments:
# [1] = REE(III)-HCl-EHEHPA system; cited from earlier work
# [2] = SAXS, radius of gyration of aggregates in solution; assay type: physicochemical
# Protocol: The mesoscale structure of 1 and 1-Pr complexes in the aqueous solution and the local coordination environment around Pr in the 1-Pr structure were investigated using small-angle X-ray scattering (SAXS) and extended X-ray absorption fine structure (EXAFS) spectroscopy at the Pr L3 edge, respectively. In the absence of Pr, 13 mM of 1 in 1 M HNO3 forms large aggregates with a radius of gyration (Rg) of ˜15 A, as represented by the steepest slope in FIG. 5a. The addition of smaller amounts of Pr (2.5 mM) reduces the aggregate size in solution by ˜5 A.
# Under conditions where 1 is expected to be fully coordinated with Pr (assuming the formation of [Pr-(1)2(NO3)3], when [Pr]=7.5 mM), the aggregates further reduce in size (Rg=6.7 A). This is consistent with the trends seen in the NMR data above. In addition, variable temperature NMR was taken of 1 without and with Pr. At elevated temperatures (up to 313 K), the spectral quality of 1 degrades dramatically and is irreversible, which is indicative of additional aggregate formation in solution. In the presence of Pr, however, the ^1H chemical shifts representing 1 remain unchanged and the peaks narrow due to increased molecular motion.
# Solubility = assay type: physicochemical
# Text: The solubility of 1 in 0.9 M nitric acid (HNO3) is >0.2 M. The three DGAs selected for this study were: N,N′-dimethyl-N,N′-di(n-octyl)diglycolamide (DMDODGA, 3), N,N,N′,N′-tetra(n-octyl)diglycolamide (TODGA, 4), and N,N-didodecyl-2-((1-hexyl-2-oxopiperidin-3-yl)oxy)acetamide (DDHPA, 5), whose structures are shown above. […] However, they differ in terms of binding affinity for lanthanides in the order 3>4>5. The stability of DGA-Ln complexes is affected by the size of N-alkyl substituents on the DGA ligand; larger substituents tend to obstruct the metal ion binding site that is decorated with three oxygen donor groups, resulting in diminished affinity for Lns with lower effective nuclear charge. Ligand 2, with unconstrained amide groups, was synthesized as a control substrate.
# However, its performance in separating Lns is very different.
# [3] = 1H NMR titration, binding constants for La complexes; settings: 1 M DNO3
# Text: Complexation of 1 with lanthanides was further assessed using nuclear magnetic resonance (NMR) spectroscopy. […] As the concentration of La increases (top to bottom), a downfield shift of ˜1.1 ppm occurs in the most downfield aromatic ^1H of 1, confirming complex formation. […] For 1 alone, some heterogeneity and broadening in the peak structure is observed, which can be attributed to aggregate formation. While the ethylene glycol units solubilize 1, the hydrophobic cores still cluster together to form aggregate structures (vide infra). As the La concentration increases, it disrupts these clusters and stabilizes 1-La units. The change in chemical shift of the most downfield aromatic ^1H was used to assess binding constants for La complexes with 1 in 1 M DNO3. The results were fitted using commercial software to yield binding constants of K1>10^2 M^−1 and K2>>10^5 M^−1 for the 1:1 and 2:1 ligand to metal binding modes, respectively. […] In the Lu titration, some downfield shift was observed, but the peaks became increasingly heterogenous and broad. This may be attributed to poor binding affinity where transient interactions occur, but no stable structure was formed, which was consistent with the selectivity data presented above.
# [4] = Extraction of 14 Lns from aqueous phase into oil phase
# Protocol: (§1) General procedure: a 500 microliter (μL) aqueous phase consisting of 7 mM Ln(III) (0.5 mM of each Ln(III)) in 1 M HNO3 without or with aqBLPhen 1 (3, 13, or 25 mM) was contacted with an equal volume of organic phase containing 0.1 M DGA (3, 4, or 5). The two phases were contacted in a 1:1 ratio of organic/aqueous by end-over-end rotation in individual 1.8 mL capacity snap-top Eppendorf tubes using a rotating wheel in an airbox set at 25.5±0.5° C. Contacts were performed in triplicate with a contact time of 1 hour. The samples were centrifuged at 1811 g for 2 min at room temperature to separate the phases. Each triplicate was then sub-sampled, using a 300 μL aliquot of the aqueous phase transferred to individual polypropylene tubes and diluted with 2% HNO3 for analysis using ICP-MS or ICP-OES. Two samples of the initial lanthanide solution were similarly prepared.
# (§2) The ability of 1 and DGA to separate Lns was evaluated using a two-component, immiscible solvent system: nitric acid (aqueous phase containing 1) and n-dodecane with 10 vol % 1-octanol (oil phase containing DGA). The amount of Ln partitioned from the aqueous phase into the oil phase was measured using inductively coupled plasma optical emission spectroscopy or mass spectrometry. The Ln concentration in each phase was then used to calculate the separation efficiency.
# (§3) The percentage of Lns in the aqueous and the oil phases is presented in FIGS. 1a-1i. for each DGA in the absence and presence of the aqueous complexant 1 (E=([Ln1]/[Ln1]0)×100%). The distribution ratios (i.e., D=[Ln1]org/[Ln1]aq) for select Lns are listed in Table 1, which also include selectivities (i.e., SFLn1/Ln2=DLn1/DLn2), for several Ln pairs. An efficient separation of Lns was achieved when DLn1>1 and DLn2<1 or ELn1>50% and ELn2<50%. […] Neither of the three DGAs can separate Lns in a single extraction stage.
# [5] = Solvent extraction of Lns, separation factor Gd/La; settings: 0.1 M DGA, 1 M HNO3, 1 h
# Protocol: as §1, §2, §3
# [6] = Solvent extraction of Lns, distribution ratio of Sm; settings: 0.1 M DGA, 1 M HNO3, 1 h
# Protocol: as §1, §2, §3
# [7] = Solvent extraction of Lns, distribution ratio of La; settings: 1 M HNO3, 1 h
# Protocol: as §1, §2, §3
# [8] = Solvent extraction of Lns, separation factor Tb/Gd; settings: 0.1 M DGA, 1 M HNO3, 1 h
# Protocol: as §1, §2, §3
# [9] = Solvent extraction of Lns, separation factor Sm/Nd; settings: 0.1 M DGA, 1 M HNO3, 1 h
# Protocol: as §1, §2, §3
# [10] = Solvent extraction of Lns, separation factor Dy/Nd; settings: 0.1 M DGA, 1 M HNO3, 1 h
# Protocol: as §1, §2, §3
# [11] = Solvent extraction of Lns, distribution ratio of Gd; settings: 0.1 M DGA, 1 M HNO3, 1 h
# Protocol: as §1, §2, §3
# [12] = Solvent extraction of Lns, distribution ratio of Nd; settings: 0.1 M DGA, 1 M HNO3, 1 h
# Protocol: as §1, §2, §3
# [13] = Solvent extraction of Lns, separation factor Nd/Pr; settings: 0.1 M DGA, 1 M HNO3, 1 h
# Protocol: as §1, §2, §3
# [14] = [1] 0 mM, 0.1 M DGA in n-dodecane with 10 vol % 1-octanol, 0.5 mM each Ln
compound,measurement,setting,value
"CCCCC(CC)COP(=O)(O)CC(CC)CCCC (stereo not shown) [EHEHPA, 2-ethylhexylphosphonic acid mono-(2-ethylhexyl) ester]",selectivity for Nd over Pr,[1],1.17
"O=c1[nH]c(COCCO)c(COCCO)c2cc3ccc4cc5c(COCCO)c(COCCO)[nH]c(=O)c5nc4c3nc12 [Ligand 1, 3,4,9,10-tetrakis((2-hydroxyethoxy)methyl)-2,11-dihydrodipyrido[3,4-b:4′,3′-j]1,10 phenanthroline-1,12-dione]",reduction of aggregate size,"[2]; 13 mM of 1, Pr 2.5 mM",~5 A
same,radius of gyration (Rg) of aggregates,"[2]; 13 mM of 1, [Pr]=7.5 mM",6.7 A
same,radius of gyration (Rg) of aggregates,"[2]; 13 mM of 1 in 1 M HNO3, absence of Pr",~15 A
same,solubility,"Solubility; aqueous buffer, in 0.9 M nitric acid (HNO3)",> 200 mM
same,binding constant K1 (1:1 ligand to metal),[3],> 10^2 M^−1
same,binding constant K2 (2:1 ligand to metal),[3],> 10^5 M^−1
O=C(c1ccc2ccc3ccc(C(=O)N(CCOCCO)CCOCCO)nc3c2n1)N(CCOCCO)CCOCCO [Ligand 2],aqueous solubility,Solubility; aqueous,excellent aqueous solubility
same,affinity for light lanthanides as aqueous complexant,"[4]; 13 mM in aqueous phase, FIG. 2",limited affinity for light lanthanides
"CCCCCCCCN(CCCCCCCC)C(=O)COCC(=O)N(CCCCCCCC)CCCCCCCC [Ligand 4, N,N,N′,N′-tetra(n-octyl)diglycolamide]",SFGd/La separation factor,[5]; [1] 0 mM,153
same,SFGd/La separation factor,[5]; [1] 3 mM,783
same,SFGd/La separation factor,[5]; [1] 13 mM,413
same,SFGd/La separation factor,[5]; [1] 25 mM,308
same,DSm distribution ratio,[6]; [1] 0 mM,120
same,DSm distribution ratio,[6]; [1] 3 mM,28.1
same,DSm distribution ratio,[6]; [1] 13 mM,2.35
same,DSm distribution ratio,[6]; [1] 25 mM,1.82
same,DLa distribution ratio,[7]; [14],2.52
same,DLa distribution ratio,"[7]; [1] 3 mM, 0.1 M DGA",0.21
same,DLa distribution ratio,"[7]; [1] 13 mM, 0.1 M DGA",0.05
same,DLa distribution ratio,"[7]; [1] 25 mM, 0.1 M DGA",0.05
same,SFTb/Gd separation factor,[8]; [1] 0 mM,2.7
same,SFTb/Gd separation factor,[8]; [1] 3 mM,3.4
same,SFTb/Gd separation factor,[8]; [1] 13 mM,5.4
same,SFTb/Gd separation factor,[8]; [1] 25 mM,5.3
same,SFSm/Nd separation factor,[9]; [1] 0 mM,6.4
same,SFSm/Nd separation factor,[9]; [1] 3 mM,13
same,SFSm/Nd separation factor,[9]; [1] 13 mM,16
same,SFSm/Nd separation factor,[9]; [1] 25 mM,13
same,SFDy/Nd separation factor,[10]; [1] 0 mM,70
same,SFDy/Nd separation factor,[10]; [1] 3 mM,408
same,SFDy/Nd separation factor,[10]; [1] 13 mM,1052
same,SFDy/Nd separation factor,[10]; [1] 25 mM,782
same,DGd distribution ratio,[11]; [1] 0 mM,386
same,DGd distribution ratio,[11]; [1] 3 mM,164
same,DGd distribution ratio,[11]; [1] 13 mM,19.3
same,DGd distribution ratio,[11]; [1] 25 mM,14.2
same,DNd distribution ratio,[12]; [1] 0 mM,18.6
same,DNd distribution ratio,[12]; [1] 3 mM,2.18
same,DNd distribution ratio,[12]; [1] 13 mM,0.15
same,DNd distribution ratio,[12]; [1] 25 mM,0.14
same,SFNd/Pr separation factor,[13]; [1] 0 mM,2.2
same,SFNd/Pr separation factor,[13]; [1] 3 mM,2.7
same,SFNd/Pr separation factor,[13]; [1] 13 mM,2.2
same,SFNd/Pr separation factor,[13]; [1] 25 mM,1.8
same,extraction of Lns from the aqueous phase into the oil phase,"[4]; 0.1 M DGA alone, 14 Lns 0.5 mM each, 1 M HNO3",reduced affinity for light Lns
"CCCCCCCCCCCCN(CCCCCCCCCCCC)C(=O)COC1CCCN(CCCCCC)C1=O (stereo not shown) [Ligand 5, N,N-didodecyl-2-((1-hexyl-2-oxopiperidin-3-yl)oxy)acetamide]",SFGd/La separation factor,[5]; [1] 0 mM,128
same,SFGd/La separation factor,[5]; [1] 3 mM,109
same,SFGd/La separation factor,[5]; [1] 13 mM,12
same,SFGd/La separation factor,[5]; [1] 25 mM,14
same,DSm distribution ratio,[6]; [1] 0 mM,6.21
same,DSm distribution ratio,[6]; [1] 3 mM,2.53
same,DSm distribution ratio,[6]; [1] 13 mM,0.16
same,DSm distribution ratio,[6]; [1] 25 mM,0.17
same,DLa distribution ratio,[7]; [14],0.18
same,DLa distribution ratio,"[7]; [1] 3 mM, 0.1 M DGA",0.12
same,DLa distribution ratio,"[7]; [1] 13 mM, 0.1 M DGA",0.08
same,DLa distribution ratio,"[7]; [1] 25 mM, 0.1 M DGA",0.06
same,SFTb/Gd separation factor,[8]; [1] 0 mM,3.3
same,SFTb/Gd separation factor,[8]; [1] 3 mM,3.7
same,SFTb/Gd separation factor,[8]; [1] 13 mM,5.1
same,SFTb/Gd separation factor,[8]; [1] 25 mM,5.8
same,SFSm/Nd separation factor,[9]; [1] 0 mM,7.2
same,SFSm/Nd separation factor,[9]; [1] 3 mM,8.0
same,SFSm/Nd separation factor,[9]; [1] 13 mM,2.0
same,SFSm/Nd separation factor,[9]; [1] 25 mM,2.5
same,SFDy/Nd separation factor,[10]; [1] 0 mM,130
same,SFDy/Nd separation factor,[10]; [1] 3 mM,260
same,SFDy/Nd separation factor,[10]; [1] 13 mM,133
same,SFDy/Nd separation factor,[10]; [1] 25 mM,123
same,DGd distribution ratio,[11]; [1] 0 mM,23.0
same,DGd distribution ratio,[11]; [1] 3 mM,13.4
same,DGd distribution ratio,[11]; [1] 13 mM,0.98
same,DGd distribution ratio,[11]; [1] 25 mM,0.88
same,DNd distribution ratio,[12]; [1] 0 mM,0.87
same,DNd distribution ratio,[12]; [1] 3 mM,0.32
same,DNd distribution ratio,[12]; [1] 13 mM,0.08
same,DNd distribution ratio,[12]; [1] 25 mM,0.07
same,SFNd/Pr separation factor,[13]; [1] 0 mM,2.0
same,SFNd/Pr separation factor,[13]; [1] 3 mM,1.8
same,SFNd/Pr separation factor,[13]; [1] 13 mM,0.9
same,SFNd/Pr separation factor,[13]; [1] 25 mM,1.0
